Results reported in the supplement of paper PMC8149375.

Legend:
Settings in all cases: treatment: drug alone; 5 days
[1] = system: CAKI-1; test: minimum viability across doses, drug alone, relative to DMSO (fraction); higher = less growth inhibition
Method: (§1)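 Primary HTS: 8 RCC cell lines treated with 8 doses (up to 10 uM) of each library drug alone for 5 days; viability read by CellTiter-Glo and normalised to DMSO. GI50 was fitted with XLfit (4-parameter), AUC is the area under the dose-response curve, and minimum viability is the lowest fraction of DMSO viability across doses.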

[2] = system: SN12C; test: as above
Method: as §1

[3] = system: TK-10; test: as above
Method: as §1

[4] = system: A498; test: as above
Method: as §1

[5] = system: 769-P; test: as above
Method: as §1

[6] = system: UO-31; test: as above
Method: as §1

[7] = system: ACHN; test: as above
Method: as §1

[8] = system: 786-O; test: as above
Method: as §1

[9] = system: CAKI-1; test: GI50, drug alone; higher = less potent
Method: as §1

[10] = system: SN12C; test: GI50, drug alone; higher = less potent
Method: as §1

[11] = system: TK-10; test: GI50, drug alone; higher = less potent
Method: as §1

[12] = system: A498; test: GI50, drug alone; higher = less potent
Method: as §1

[13] = system: 769-P; test: GI50, drug alone; higher = less potent
Method: as §1

[14] = system: UO-31; test: GI50, drug alone; higher = less potent
Method: as §1

[15] = system: ACHN; test: GI50, drug alone; higher = less potent
Method: as §1

[16] = system: 786-O; test: GI50, drug alone; higher = less potent
Method: as §1

[17] = system: CAKI-1; test: AUC of dose-response viability curve, drug alone (arbitrary (AUC of normalised viability)); higher = less growth inhibition
Method: as §1

[18] = system: SN12C; test: as above
Method: as §1

[19] = system: TK-10; test: as above
Method: as §1

[20] = system: A498; test: as above
Method: as §1

[21] = system: 769-P; test: as above
Method: as §1

[22] = system: UO-31; test: as above
Method: as §1

[23] = system: ACHN; test: as above
Method: as §1

[24] = system: 786-O; test: as above
Method: as §1

| Structure (SMILES) | minimum viability across doses [1] | minimum viability across doses [2] | minimum viability across doses [3] | minimum viability across doses [4] | minimum viability across doses [5] | minimum viability across doses [6] | minimum viability across doses [7] | minimum viability across doses [8] | GI50, drug alone [9] [µM] | GI50, drug alone [10] [µM] | GI50, drug alone [11] [µM] | GI50, drug alone [12] [µM] | GI50, drug alone [13] [µM] | GI50, drug alone [14] [µM] | GI50, drug alone [15] [µM] | GI50, drug alone [16] [µM] | AUC of dose-response viability curve [17] | AUC of dose-response viability curve [18] | AUC of dose-response viability curve [19] | AUC of dose-response viability curve [20] | AUC of dose-response viability curve [21] | AUC of dose-response viability curve [22] | AUC of dose-response viability curve [23] | AUC of dose-response viability curve [24] |
| --- | --- | --- | --- | --- | --- | --- | --- | --- | --- | --- | --- | --- | --- | --- | --- | --- | --- | --- | --- | --- | --- | --- | --- | --- |
| Nc1nc(N)c2nc(-c3cccc(O)c3)c(-c3cccc(O)c3)nc2n1 [TG100-115] | 0.567 | 0.804 | 0.871 | 0.862 | 0.912 | 1.2 | 0.685 | 0.873 | > 10 | > 10 | > 10 | > 10 | > 10 | > 10 | > 10 | > 10 | 2.42 | 3.31 | 3.25 | 4.15 | 3.5 | 5.18 | 3.33 | 3.66 |
| Cc1cc(C(C)Nc2ccccc2)c2nc(N3CCOCC3)cc(=O)n2c1 (configuration not stated) [TGX-221] | 0.49 | 0.847 | 0.707 | 1.04 | 0.749 | 1.15 | 0.736 | 0.622 | 8.6 | > 10 | > 10 | > 10 | > 10 | > 10 | > 10 | > 10 | 2.84 | 3.34 | 3.06 | 4.23 | 3.18 | 5.04 | 3.15 | 2.6 |
| NC(=O)Nc1sc(-c2ccc(F)cc2)cc1C(N)=O [TPCA-1] | 0.117 | 0.544 | 0.178 | 1.1 | 0.355 | 0.627 | 0.201 | 0.189 | 1.45 | > 10 | 1.78 | > 10 | > 10 | > 10 | 1.29 | 4.89 | 2.67 | 3.24 | 2.53 | 4.38 | 3.16 | 3.64 | 2.57 | 2.54 |
| Cc1[nH]c(/C=C2\C(=O)Nc3ccccc32)c(C)c1CCC(=O)O [TSU-68] | 0.903 | 0.882 | 0.855 | 0.884 | 0.887 | 0.879 | 0.752 | 0.786 | > 10 | > 10 | > 10 | > 10 | > 10 | > 10 | > 10 | > 10 | 3.34 | 3.41 | 3.26 | 3.71 | 3.3 | 2.36 | 3.12 | 3.1 |
| CC(C)c1ccccc1Cc1cc(C(=O)Nc2ccc(S(=O)(=O)c3ccccc3C(C)(C)C)cc2)c(O)c(O)c1O [TW-37] | 0.0857 | 0.499 | 0.296 | 0.946 | 0.0442 | 0.0881 | 0.0989 | 0.0508 | 0.926 | > 10 | 1.73 | > 10 | 2.8 | 8.46 | 1.46 | 0.133 | 2.77 | 2.97 | 2.25 | 4 | 3.12 | 4.07 | 2.48 | 1.54 |
| Nc1cccc(-c2cc3c(Oc4cccc(O)c4)ncnc3[nH]2)c1 [TWS119] | 0.113 | 0.295 | 0.0991 | 0.572 | 0.0987 | 0.0946 | 0.153 | 0.154 | 4.56 | 5.5 | 2.65 | > 10 | 3.63 | 8.62 | 2.8 | 5.04 | 3.09 | 2.86 | 2.75 | 3.93 | 2.93 | 4.2 | 2.77 | 3.03 |
| COc1cc2c(N3CCN(C(=O)Nc4ccc(OC(C)C)cc4)CC3)ncnc2cc1OCCCN1CCCCC1 [Tandutinib (MLN518)] | 0.729 | 0.74 | 0.818 | 0.96 | 0.818 | 1.09 | 0.767 | 0.609 | > 10 | > 10 | > 10 | > 10 | > 10 | > 10 | > 10 | > 10 | 3.41 | 3.14 | 3.23 | 3.63 | 3.32 | 4.36 | 3.5 | 3.61 |
| CNC(=O)c1cc(COc2nnc(Nc3ccc(Cl)cc3)c3ccoc23)ccn1 [Telatinib (BAY 57-9352)] | 0.267 | 0.79 | 0.319 | 0.951 | 0.484 | 0.749 | 0.497 | 0.0383 | 6.76 | > 10 | 6.45 | > 10 | 9.79 | > 10 | 9.99 | 3.22 | 3.3 | 3.27 | 2.96 | 4.32 | 3.4 | 4.45 | 3.42 | 2.61 |
